Experiments:
cochlear hair cells [1] = test: In vivo hair cell loss after cisplatin, neurturin infused into the inner ear by mini-pump; design: species or system guinea pigs; conditions: cisplatin 7.5 mg/kg twice
Procedure: The following example describes the inner ear administration of neurturin protein product to protect cochlear hair cells against ototoxicity in an animal model. The neurturin protein product is introduced into the inner ear via a cannula pushed into the scala tympani through a hole drilled in the basal turn of the cochlea. The cannula is connected to an Alzet mini-pump loaded with neurturin protein product (50 ng/ml) at a releasing rate of 0.5 µl/hour for 14 days. […] The experiment is terminated after 27 days. The hair cells are stained with FITC-phalloidin, and their number is determined in the middle turn of the cochlea (in at least 20% of the middle turn part). The results are expressed as the percent of hair cells lost for each individual guinea pig for the neurturin protein product treated ear (right ear) and the untreated ear (left ear).
The loading of a pump with methylene dye is done by holding the pump in a vertical position. A dye-loaded syringe is inserted completely into the pump, and the dye is injected until the pump overflowed. Injection of any air bubbles into the pump is avoided. A short piece of sterile V/4 tubing is placed onto the Flow Moderator. Neurturin protein product is loaded at a concentration of 50 ng/ml in PBS + 0.1% BSA, in a total volume of 230 µl, to within about 10 mm of the cannula tip, using a syringe connected with V/4 tubing. […]

cochlear hair cells [2] = test: Organ of Corti (cochlea) explant culture, hair cell survival after cisplatin exposure (FITC-phalloidin count); assay type: cell-based, rat; conditions: cisplatin treatment alone
Text: Triton X-100 (t-Octylphenoxypoly-ethoxyethanol. Cat. #X-100, Sigma. St. Louis, MO) • 4. Phalloidin (FITC Labeled. Cat. #P-5282, Sigma. St. Louis, MO) • 5. Vectashield (Mounting Medium, Cat. #H-1000, Vector, Burlingame, CA)
Organ of Corti explants were obtained from P3-P4 Wistar rats. Rats were decapitated, the lower jaw was cut out and skin removed. The temporal bone was collected in dissection solution, the otic capsule exposed and the bony-cartilaginous cochlear capsule was carefully separated from the temporal bone. Freed cochlea were transferred to another Petri dish with dissection solution for further dissection. […] The organ of Corti was then transferred to a 35-mm diameter Petri dish containing cold PBS supplemented with glucose and ready to be cultured. […]
For each experimental point, 2 to 4 cochlea were used. In each cochlea, the number of hair cells was counted in 2-3 section, 175 mm in length each. Only the sections in the middle turn of the cochlea were analyzed. […]

cochlear hair cells [3] = test: Organ of Corti (cochlea) explant culture, hair cell survival after neomycin exposure (FITC-phalloidin count); assay type: cell-based, rat; conditions: for Hair cell survival (% of untreated): Neomycin alone (0.6 mM), added 24 hours after plating, 3 days exposure, mean ± SD, 4320 min, 600 µM
Text: • 1. Neomycin solution (Cat. #N1142, Sigma. St. […] Cat. #X-100, Sigma. St. Louis, MO) • 4. Phalloidin (FITC Labeled. Cat. #P-5282, Sigma. St. Louis, MO) • 5. Vectashield (Mounting Medium, Cat. #H-1000, Vector, Burlingame, CA)
Organ of Corti explants were obtained from P3-P4 Wistar rats. Rats were decapitated, the lower jaw was cut out and skin removed. The temporal bone was collected in dissection solution, the otic capsule exposed and the bony-cartilaginous cochlear capsule was carefully separated from the temporal bone. Freed cochlea were transferred to another Petri dish with dissection solution for further dissection. Intact organs of Corti were obtained by using a fine forceps to hold central VIII nerve tissue and remove it out, then the stria vascular membrane was carefully stripped off, starting from the apex or base. The organ of Corti was then transferred to a 35-mm diameter Petri dish containing cold PBS supplemented with glucose and ready to be cultured.
Cochlea explants were cultured in uncoated 96 well microplates. A single organ of Corti was placed in a well and was kept floating in the medium.
Explants were kept in normal medium for 24 hours (90 µl/well). Neurturin protein solution (10 µl) was added to the 'treated' cultures, and 10 µl of medium were added to controls. After 24 hours of incubation, the media were changed and the explants were exposed to ototoxin-containing medium (90 µl), with neurturin protein solution (10µl) or without (control). The cultures were incubated for an additional 3 days. […]
To identify and count hair cells in the organ of Corti, a direct immunostaining method was used to label the actin present naturally in the stereocilia bundles of the hair cells. […] The explants were . observed under a Nikon Diaphot-300 inverted fluorescence microscope, using FITC filters and fluorescence optics.
For each experimental point, 2 to 4 cochlea were used. In each cochlea, the number of hair cells was counted in 2-3 section, […] in length each. Only the sections in the middle turn of the cochlea were analyzed. […]

Row | Compound | loss of hair cells in the left ear (untreated ear) (cochlear hair cells [1]) | morphology of the organs of Corti (four-row structure) (cochlear hair cells [2]) | Hair cell survival (% of untreated) (cochlear hair cells [3]) [n=23%] | Hair cell survival (% of untreated) (cochlear hair cells [3]; listed as neomycin) [%] | morphology of the organs of Corti (four-row structure) (cochlear hair cells [3]; neomycin treatment alone, spared hair cells)
1 | N.N.[Cl][Pt][Cl] [Cisplatin] | approximately 40% | caused a marked disruption of the four-row-structure |  |  | 
2 | Neomycin |  |  | 5.9 ± 4.7 | 6 | still organized in the typical four row structure

Source: patent EP1304119A2, “Method for preventing and treating hearing loss using a neurturin protein product” (Amgen Inc., priority 1997, dated 1999)
